Reference: patent US20260327263A1, “Anti-Bacterial Peptides” (priority 2023, published 2026)
≈ marks a conversion by molar mass, not a printed value. Where a SMILES comes first, the peptide text is derived from it. Where no end group is shown, it is not given here. [ ]: non-standard residue; d: D form. Bip = N[C@@H](Cc1ccc(-c2ccccc2)cc1)C(=O)O; 1Nal = N[C@@H](Cc1cccc2ccccc12)C(=O)O; 2Nal = N[C@@H](Cc1ccc2ccccc2c1)C(=O)O; Aib = CC(C)(N)C(=O)O

Legend:
[1] = tested on: Pseudomonas aeruginosa (PA); assay: Broth microdilution anti-bacterial assay (CLSI), Pseudomonas aeruginosa; format: cell-based, Pseudomonas aeruginosa (ATCC 14213); conditions: for MIC / MBC: PA; for MIC: overnight, 37° C., ≥99% inhibition; for MBC: ≥99% killing; for anti-bacterial activity (in words): PA and SA
Procedure: (§1) To evaluate their anti-bacterial potency, broth microdilution method as per the CLSI guidelines 1 was used. […] The anti-bacterial potency of the tested agents is quantified using minimum inhibitory concentration (MIC) and minimum bactericidal concentration (MBC). […] To obtain the MBC data, 1X, 2X and 4× MIC of the peptide variants were plated to obtain the number of viable colonies compared to the original inoculum.
(§2) Pseudomonas aeruginosa (ATCC 14213, PA), and methicillin resistant Staphylococcus aureus (BAA1717-USA 300, SA) were obtained from The American Type Culture Collection (ATCC).
(§3) Examination of the potency of modified short peptides against PA and SA strains was performed by using the broth microdilution protocol from the Clinical and Laboratory Standards Institute (CLSI) guidelines (CLSI 2012) as described. Briefly, five freshly plated bacteria colonies were grown in cation adjusted MH2 broth (BD Biosciences) in a shaker incubator at 37° C., 220 RPM. Cells were grown to an optical density (OD600) of ~0.2 measured using a Microplate Spectrophotometer (Molecular Devices Spectra Max Plus). 100 μL of microbial culture containing ~5×10^5 CFU/mL of bacteria in the respective broths were introduced into each well containing 100 μL of peptides and incubated overnight at 37° C. Next, to check the bactericidal effects, 100 μL from each well was transferred and spread on sterile MH2 agar plates. The plates were incubated overnight at 37° C. and the number of colonies forming units (CFU) were calculated the following day. Readings of bacteria grown in media without any treatments were normalized to 100% as media control. For the mixed infection study, three freshly plated bacteria colonies each from PA, SA and ST plates were grown together in cation adjusted MH2 broth and proceeded as described above.

[2] = tested on: Staphylococcus aureus (SA); assay: Broth microdilution anti-bacterial assay (CLSI), Staphylococcus aureus; format: cell-based; conditions: SA; for MIC: overnight, 37° C., ≥99% inhibition; for MBC: ≥99% killing
Procedure: as §1, §2, §3

Molecule | MIC [1] | MBC [1] | MIC [2] | MBC [2] | anti-bacterial activity (in words) [1]
KKLLKKWVKLSKKALKLA-NH2 [E1AM2 C-3] | 6.25 µM | – | – | – | –
KKLLKKKVKLSKKALKLAQSL-NH2 [W7K] | 12.5 µM | 12.5 µM | 12.5 µM | 25 µM | –
WVKLSKKALKLAQSL-NH2 [E1AM2 N-6] | >25 µM | – | – | – | –
KKLLKKLVKLSKKALKLAQSL-NH2 [W7L] | 3.125 µM | 3.125 µM | 6.25 µM | 6.25 µM | reduced MIC against PA
CC(C)C[C@H](NC(=O)[C@H](CO)NC(=O)[C@H](CC(C)C)NC(=O)[C@H](C)NC(=O)[C@H](CC(C)C)NC(=O)[C@H](CCCCN)NC(=O)[C@H](CC(C)C)NC(=O)[C@H](C)NC(=O)[C@H](CCCCN)NC(=O)[C@H](CCCCN)NC(=O)[C@H](CO)NC(=O)[C@H](CC(C)C)NC(=O)[C@H](CCCCN)NC(=O)[C@H](CC(C)C)NC(=O)[C@H](Cc1ccc(-c2ccccc2)cc1)NC(=O)[C@H](CCCCN)NC(=O)[C@H](CCCCN)NC(=O)[C@H](CC(C)C)NC(=O)[C@H](CC(C)C)NC(=O)[C@H](CCCCN)NC(=O)[C@@H](N)CCCCN)C(N)=O [W7BipV8LQ19L] (H-KKLLKK[Bip]LKLSKKALKLALSL-NH2) | 3.325 µM (≈ 8.27 µg/mL) | 3.125 µM (≈ 7.77 µg/mL) | 1.58 µM (≈ 3.93 µg/mL) | 1.56 µM (≈ 3.88 µg/mL) | –
CC(C)C[C@H](NC(=O)[C@H](CO)NC(=O)[C@H](CC(C)C)NC(=O)[C@H](C)NC(=O)[C@H](CC(C)C)NC(=O)[C@H](CCCCN)NC(=O)[C@H](CC(C)C)NC(=O)[C@H](C)NC(=O)[C@H](CCCCN)NC(=O)[C@H](CCCCN)NC(=O)[C@H](CO)NC(=O)[C@H](CC(C)C)NC(=O)[C@H](CCCCN)NC(=O)[C@H](CC(C)C)NC(=O)[C@H](Cc1cccc2ccccc12)NC(=O)[C@H](CCCCN)NC(=O)[C@H](CCCCN)NC(=O)[C@H](CC(C)C)NC(=O)[C@H](CC(C)C)NC(=O)[C@H](CCCCN)NC(=O)[C@@H](N)CCCCN)C(N)=O [W71NalV8LQ19L] (H-KKLLKK[1Nal]LKLSKKALKLALSL-NH2) | 3.125 µM (≈ 7.69 µg/mL) | 3.125 µM (≈ 7.69 µg/mL) | 1.56 µM (≈ 3.84 µg/mL) | 1.56 µM (≈ 3.84 µg/mL) | –
KKLLKKWVKLSKKKLKLAQSL-NH2 [A14K] | 12.5 µM | 12.5 µM | 12.5 µM | 12.5 µM | –
CC(C)C[C@H](NC(=O)[C@H](CO)NC(=O)[C@H](CC(C)C)NC(=O)[C@H](C)NC(=O)[C@H](CC(C)C)NC(=O)[C@H](CCCCN)NC(=O)[C@H](CC(C)C)NC(=O)[C@H](C)NC(=O)[C@H](CCCCN)NC(=O)[C@H](CCCCN)NC(=O)[C@H](CO)NC(=O)[C@H](CC(C)C)NC(=O)[C@H](CCCCN)NC(=O)[C@H](CC(C)C)NC(=O)[C@H](Cc1ccc2ccccc2c1)NC(=O)[C@H](CCCCN)NC(=O)[C@H](CCCCN)NC(=O)[C@H](CC(C)C)NC(=O)[C@H](CC(C)C)NC(=O)[C@H](CCCCN)NC(=O)[C@@H](N)CCCCN)C(N)=O [W72NalV8LQ19L] (H-KKLLKK[2Nal]LKLSKKALKLALSL-NH2) | 1.56 µM (≈ 3.84 µg/mL) | 1.66 µM (≈ 4.09 µg/mL) | 1.56 µM (≈ 3.84 µg/mL) | 1.56 µM (≈ 3.84 µg/mL) | –
KKLLKKWVKLSKKALKLAQLL-NH2 [S20L] | 6.25 µM | 12.5 µM | 6.25 µM | 12.5 µM | –
CC(C)C[C@H](NC(=O)[C@H](CO)NC(=O)[C@H](CC(C)C)NC(=O)C(C)(C)NC(=O)[C@H](CC(C)C)NC(=O)[C@H](CCCCN)NC(=O)[C@H](CC(C)C)NC(=O)C(C)(C)NC(=O)[C@H](CCCCN)NC(=O)[C@H](CCCCN)NC(=O)[C@H](CO)NC(=O)[C@H](CC(C)C)NC(=O)[C@H](CCCCN)NC(=O)[C@H](CC(C)C)NC(=O)[C@H](Cc1c[nH]c2ccccc12)NC(=O)[C@H](CCCCN)NC(=O)[C@H](CCCCN)NC(=O)[C@H](CC(C)C)NC(=O)[C@H](CC(C)C)NC(=O)[C@H](CCCCN)NC(=O)[C@@H](N)CCCCN)C(N)=O [V8LQ19LA1418Aib] (H-KKLLKKWLKLSKK[Aib]LKL[Aib]LSL-NH2) | 3.126 µM (≈ 7.75 µg/mL) | 3.125 µM (≈ 7.74 µg/mL) | 1.56 µM (≈ 3.87 µg/mL) | 1.56 µM (≈ 3.87 µg/mL) | –
CC(C)C[C@@H](NC(=O)[C@@H](CO)NC(=O)[C@@H](CC(C)C)NC(=O)[C@@H](C)NC(=O)[C@@H](CC(C)C)NC(=O)[C@@H](CCCCN)NC(=O)[C@@H](CC(C)C)NC(=O)[C@@H](C)NC(=O)[C@@H](CCCCN)NC(=O)[C@@H](CCCCN)NC(=O)[C@@H](CO)NC(=O)[C@@H](CC(C)C)NC(=O)[C@@H](CCCCN)NC(=O)[C@@H](CC(C)C)NC(=O)[C@@H](Cc1c[nH]c2ccccc12)NC(=O)[C@@H](CCCCN)NC(=O)[C@@H](CCCCN)NC(=O)[C@@H](CC(C)C)NC(=O)[C@@H](CC(C)C)NC(=O)[C@@H](CCCCN)NC(=O)[C@H](N)CCCCN)C(N)=O [D-V8LQ19L] (H-[dK][dK][dL][dL][dK][dK][dW][dL][dK][dL][dS][dK][dK][dA][dL][dK][dL][dA][dL][dS][dL]-NH2) | 3.125 µM (≈ 7.66 µg/mL) | 3.125 µM (≈ 7.66 µg/mL) | 3.125 µM (≈ 7.66 µg/mL) | 3.125 µM (≈ 7.66 µg/mL) | retains the strong anti-bacterial effects
KKLLKKWKKLSKKALKLAQSL-NH2 [V8K] | 3.125 µM | 3.126 µM | 12.5 µM | 12.5 µM | –
KKLLKKLLKLSKKALKLALSL-NH2 [W7LV8LQ19L] | 3.125 µM | 3.125 µM | 1.58 µM | 1.58 µM | –
Ac-KKLLKKWVKLSKKALKLAQSL [Ac-E1AM2] | 25 µM | 25 µM | – | – | –
CC(C)C[C@H](NC(=O)[C@H](CO)NC(=O)[C@H](CC(C)C)NC(=O)C(C)(C)NC(=O)[C@H](CC(C)C)NC(=O)[C@H](CCCCN)NC(=O)[C@H](CC(C)C)NC(=O)[C@H](C)NC(=O)[C@H](CCCCN)NC(=O)[C@H](CCCCN)NC(=O)[C@H](CO)NC(=O)[C@H](CC(C)C)NC(=O)[C@H](CCCCN)NC(=O)[C@H](CC(C)C)NC(=O)[C@H](Cc1c[nH]c2ccccc12)NC(=O)[C@H](CCCCN)NC(=O)[C@H](CCCCN)NC(=O)[C@H](CC(C)C)NC(=O)[C@H](CC(C)C)NC(=O)[C@H](CCCCN)NC(=O)[C@@H](N)CCCCN)C(N)=O [V8LQ19LA18Aib] (H-KKLLKKWLKLSKKALKL[Aib]LSL-NH2) | 3.125 µM (≈ 7.7 µg/mL) | 3.125 µM (≈ 7.7 µg/mL) | 1.58 µM (≈ 3.89 µg/mL) | 1.56 µM (≈ 3.84 µg/mL) | –
KKLLKKWVKLSKKALK-NH2 [E1AM2 C-5] | >25 µM | – | – | – | –
KKLLKKWVKLSKKALKLLQSL-NH2 [A18L] | 6.25 µM | 6.25 µM | 3.125 µM | 3.125 µM | –
KKLLKKWVKLSKKALKLAQS-NH2 [E1AM2 C-1] | >25 µM | – | – | – | –
LLKKWVKLSKKALKLAQSL-NH2 [E1AM2 N-2] | 25 µM | – | – | – | –
LKKWVKLSKKALKLAQSL-NH2 [E1AM2 N-3] | 12.5 µM | – | – | – | –
Ac-KKLLKKWVKLSKKALKLAQSL-NH2 [Ac-E1AM2-NH2] | 12.5 µM | 12.5 µM | – | – | –
KWVKLSKKALKLAQSL-NH2 [E1AM2 N-5] | >25 µM | – | – | – | –
KKWVKLSKKALKLAQSL-NH2 [E1AM2 N-4] | >25 µM | – | – | – | –
KKLLKKWVKLSKKALKL-NH2 [E1AM2 C-4] | >12.5 µM | – | – | – | –
KLLKKWVKLSKKALKLAQSL-NH2 [E1AM2 N-1] | 12.5 µM | – | – | – | –
KKLLKKWVKLSKKAL-NH2 [E1AM2 C-6] | >25 µM | – | – | – | –
KKLLKKWLKLSKKALKLALS-NH2 [V8LQ19L C-1] | 3.125 µM | 3.125 µM | 3.125 µM | 3.125 µM | strong potency
KKLLKKWVKLSKKALKLAQKL-NH2 [S20K] | 25 µM | 25 µM | 25 µM | 25 µM | –
KKLLKKWVKLSKKALKLAKSL-NH2 [Q19K] | 12.5 µM | 25 µM | 12.5 µM | 25 µM | –
KKLLKKWVKLSKKALKLAQ-NH2 [E1AM2 C-2] | 25 µM | – | – | – | –
